Laboratory results taken from patent US9289400B2, “D3 dopamine receptor agonists to treat dyskinesia in parkinson's disease” (priority 2010, dated 2016).
“Also recorded” adds a separate entry of the source.

Columns and labels:
monoamine transporter = test: Monoamine transporter uptake activity; type: cell-based; conditions: FIG. 23
D1-like receptors = conditions: cited from earlier work
Water solubility = type: physicochemical
D2S = D2S (Homo sapiens (Human), UniProt P14416); conditions: Scheideler et al., 1997; cited from earlier work
Sequence of D2S (P14416 other isoform, or with tags, fused parts or gaps): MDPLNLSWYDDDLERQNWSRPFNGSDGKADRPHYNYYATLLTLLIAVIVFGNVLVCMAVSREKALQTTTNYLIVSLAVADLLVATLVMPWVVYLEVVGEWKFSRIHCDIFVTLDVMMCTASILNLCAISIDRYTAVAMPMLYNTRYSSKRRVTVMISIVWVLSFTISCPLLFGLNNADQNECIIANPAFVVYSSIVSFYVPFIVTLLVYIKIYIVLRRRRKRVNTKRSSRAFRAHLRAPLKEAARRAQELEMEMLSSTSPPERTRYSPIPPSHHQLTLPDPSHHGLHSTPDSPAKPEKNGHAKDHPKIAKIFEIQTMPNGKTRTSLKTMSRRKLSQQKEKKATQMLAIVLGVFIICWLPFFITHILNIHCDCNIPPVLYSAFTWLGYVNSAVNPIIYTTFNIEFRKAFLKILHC

Balb/c mice = test: Locomotor activity (open field, TruScan) in Balb/c mice
Method: Therefore, three different doses of the lead compound are administered and their effects on locomotor activity are determined. The dosage is determined based on the functional EC50 values and binding affinity of the lead compound from the cell-based assays described above. The compound is administered to Balb/c mice and locomotor activity is monitored using the TruScan Automated Behavioral Monitoring system (Coulborn Instruments).
A total of 12 young adult, male Balb/c mice were obtained form Charles River, Inc. (Wilmington, Mass.), and housed in groups of four in standard cages. The animals were maintained on a 12 hour light/12 hour dark cycle and permitted ad lib access to food and water. Experiments were conducted during the animal's light phase. […] For PD128907, separate groups of Balb/c mice received subcutaneous injections of saline (n=4) or 0.05 or 0.4 mg/kg PD128907 (n=4, for each). Locomotion (‘distance traveled’) scores of drug-injected animals were collapsed across 10-min intervals and for comparison purposes were normalized to saline injected animals (FIG. 12A). The experiment was conducted on three separate occasions.

D4.2 = conditions: Scheideler et al., 1997; cited from earlier work
D3 dopamine receptor = D3 dopamine receptor (Homo sapiens (Human), UniProt P35462); test: Current clamp recording of spontaneous action potentials in AtT-20 cells expressing D3; type: cell-based; conditions: 100 nM dopamine or 300 nM PBZI
Sequence of D3 dopamine receptor (P35462 other isoform, or with tags, fused parts or gaps): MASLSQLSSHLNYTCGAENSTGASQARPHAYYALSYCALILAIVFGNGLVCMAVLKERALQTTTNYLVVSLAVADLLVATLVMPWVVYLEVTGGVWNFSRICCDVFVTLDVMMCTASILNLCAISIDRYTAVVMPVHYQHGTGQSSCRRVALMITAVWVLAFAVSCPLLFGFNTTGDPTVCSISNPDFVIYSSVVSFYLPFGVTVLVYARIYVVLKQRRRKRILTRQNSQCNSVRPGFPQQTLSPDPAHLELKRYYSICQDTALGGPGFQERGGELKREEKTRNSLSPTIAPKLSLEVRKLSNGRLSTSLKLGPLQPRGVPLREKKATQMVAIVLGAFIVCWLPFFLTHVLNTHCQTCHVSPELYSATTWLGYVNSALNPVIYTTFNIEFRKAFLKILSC
From the text: Drug solutions were delivered to cells via a multi-barreled micropipette array. The current responses were normalized to the cell capacitance, to account for variation in cell size.

Row | Compound | monoamine transporter uptake activity (monoamine transporter) | Binding at D1-like receptors and a panel of other neurotransmitter receptors, ion channels and transporters (D1-like receptors) | water solubility (Water solubility) | Ki (D2S) [nM] | effect on locomotion (Balb/c mice; 1 mg/kg sc) | reduction of locomotion (Balb/c mice; 10 mg/kg sc, within 20-min) | duration of hypoactivity post-injection (Balb/c mice; PBZI 10 mg/kg sc, PD128907 0.4 mg/kg sc) [min] | locomotor response (Balb/c mice; sc, PBZI 10 mg/kg, PD128907 0.05-0.4 mg/kg, normalized to saline) | Ki (D4.2) [nM] | inhibition of spontaneous action potentials on repeated application (D3 dopamine receptor)
1 | CC(N)CCc1ccccc1Cl (stereo not shown) [ES609] | inhibits monoamine transporter uptake activity |  |  |  |  |  |  |  |  | 
2 | CCCN1CC[C@@H]2c3cc(O)ccc3CC[C@@H]21 [PBZI, (3aS,9bR)-3-propyl-1,2,3a,4,5,9b-hexahydrobenzo[e]indol-8-ol] |  | negligible | water soluble | 1800 | no significant effect | approximately 90% | 40 | only elicit hypoactivity; also recorded: monophasic hypoactive locomotor response; also recorded: dose-dependent and monophasic inhibition of locomotion | 280 | inhibited spontaneous action potentials during the first application and subsequent applications; also recorded: inhibited the spontaneous action potentials during the first and second treatment
